We go through 24 compounds from patent publication US7674802B2, “N-linked aryl heteroaryl inhibitors of LTA4H for treating inflammation” (deCODE genetics, ehf, priority 2005, dated 2010).

The target in one assay is T1, human LTA4 hydrolase (Homo sapiens, UniProt P09960).
T1 construct: A human LTA4 hydrolase full-length cDNA clone (NM_000895) was purchased; His tag (own knowledge: pDEST17 adds an N-terminal 6xHis); made in house; host or cells: Escherichia coli BL21-AI
T1 sequence (P09960 1-611): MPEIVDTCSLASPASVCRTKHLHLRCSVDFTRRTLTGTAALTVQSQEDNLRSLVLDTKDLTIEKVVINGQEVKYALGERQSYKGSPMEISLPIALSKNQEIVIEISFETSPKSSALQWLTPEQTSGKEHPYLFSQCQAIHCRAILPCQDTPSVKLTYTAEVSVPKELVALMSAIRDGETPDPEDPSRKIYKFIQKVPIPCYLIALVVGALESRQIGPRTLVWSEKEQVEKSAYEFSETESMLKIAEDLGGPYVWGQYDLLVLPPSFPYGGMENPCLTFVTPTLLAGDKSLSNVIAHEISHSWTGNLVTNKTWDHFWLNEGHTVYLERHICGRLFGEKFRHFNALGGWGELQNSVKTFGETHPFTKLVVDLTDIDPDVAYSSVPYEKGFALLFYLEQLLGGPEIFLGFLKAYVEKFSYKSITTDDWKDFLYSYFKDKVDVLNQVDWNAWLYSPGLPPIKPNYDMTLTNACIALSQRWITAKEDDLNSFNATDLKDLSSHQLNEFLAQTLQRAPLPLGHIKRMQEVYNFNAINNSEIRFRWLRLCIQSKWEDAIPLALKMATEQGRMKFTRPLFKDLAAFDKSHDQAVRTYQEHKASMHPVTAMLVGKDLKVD
The experiment in a line: In vitro assay testing inhibitory activity against purified recombinant human LTA4 hydrolase. The class given is biochemical.
Text: (1) In vitro Assay Testing Inhibitory Activity Against Purified Recombinant Human LTA4 Hydroase:
A human LTA4 hydrolase full-length cDNA clone (NM_000895) was purchased from OriGene Technologies (Rockville, Md.). The gene was amplified by polmerase chain reaction and transferred via pDONR201 into the bacterial expression vector pDEST17 by recombination (both plasmids from Invitrogen, Carlsbad, Calif.). The resulting construct was transformed into Escherichia coli BL21-AI (Invitrogen), and expression was induced by chemical induction with arabinose. The recombinant enzyme was purified by chromatography on a FPLC system (Amersham Biosciences, Uppsala, Sweden) using immobilized metal affinity chromatography (Ni-NTA Superflow, Qiagen, Hilden, Germany) and anion exchange chromatography (MonoQ HR 10/10, Amersham Biosciences).
(§1) The compounds of the invention were incubated in a series of dilutions with 200 nM of recombinant enzyme in assay buffer (100 mM Tris-HCl, 100 mM NaCl, 5 mg/ml fatty-acid free BSA, 10% DMSO, pH 8.0) for 10 min at room temperature to allow binding between LTA4 hydrolase and the inhibitors. LTA4 was prepared by alkaline hydrolysis of LTA4 methyl ester (Biomol, Plymouth Meeting, Pa., or Cayman Chemicals, Ann Arbor, Mich.). A solution of 10 μg of the ester was dried under a nitrogen stream and redissolved in 60 μl of a solution of 80% aceton and 20% 0.25 M NaOH.
After incubation for 40 min at room temperature the resulting approximately 500 μM tock of LTA4 was kept at −80° C. for no more than a few days prior to use.
Immediately before the assay, LTA4 was diluted to a concentration of 10 μM in assay buffer (without DMSO) and added to the reaction mixture to a final concentration of 2 μM to initiate the enzyme reaction. After incubation for 120 sec at room temperature, the reaction was stopped by ading 2 volumes of chilled quenching buffer, containing acetonitril with 1% acetic acid and 225 nM LTB4-d4 (Biomol). The samples were then kept at 4° C. over night to complete protein precipitation and centrifuged for 15 min at 1800 g. LTB4 formed was measured by LC-MS/MS using LTB4-d4 as an internal standard and an external LTB4 standard (Biomol) as reference. Briefly, the analyte was separated from LTB4 isomers formed by spontaneous hydrolysis of LTA4 using isocratic elution (modified protocol from Mueller et al. (1996), J. Biol. Chem. 271, 24345-24348) on a HPLC system (Waters, Milford, Mass.) and analyzed on a tandem quadrupole mass spectrometer (Waters). MRM transitions followed on 2 channels were 335.2>195.3 (LTB4) and 339.2>197.3 (LTB4-d4). Based on the amounts of LTB4 found at each inhibitor concentration, a dose-response curve was fitted to the data and an IC50 value was calculated.
as §1, with “NaOH. After incubation for 40 min at room temperature the resulting approximately 500 μM tock of LTA4 was kept at −80° C. for no more than a few days prior to use.” for “NaOH.”

Assay [1] concerns ionophore-induced LTB4 production. The note with it: oral administration; cited from earlier work.
Assay [2] shares this test system. As to conditions: oral administration; cited from earlier work. The source holds these as a separate data set.
The conditions of assay [3]: eight weeks of treatment, primate model; cited from earlier work.
Setting [4] is: Table V, read-out: hLTA4H Enzyme IC50.
Setting [5] is: Table II, read-out: IC50 (μM)(hLTA4H).
[6] abbreviates: Table IV, read-out: hLTA4H Enyzme IC 50.
The mark [7] stands for this setting: Table I, read-out: IC50 (μM) (hLTA4H).
Setting [8] is: Table III, read-out: IC50 (μM) (hLTA4H).

Each structure is given as a SMILES string. Where a name gives a salt, the structure may show the parent alone. Read-outs that look alike come from different tables or passages of the source.

As to `O=C1c2ccccc2C(=O)N1c1ccc(OCCN2CCCCC2)cc1`, at human LTA4 hydrolase (setting [4]), the IC50 was < 5 µM.

Consider `O=C1c2ccccc2C(=O)N1c1ccc(OC[C@H]2CCCN2)cc1`, for which, at human LTA4 hydrolase (setting [4]), the IC50 was < 5 µM.

As for `CN1CCC[C@@H]1COc1ccc(N2Cc3ccccc3C2)cc1`, the IC50 at human LTA4 hydrolase (setting [4]) lay in the range of 5 to 20 µM.

In the case of `c1ccc2c(c1)cnn2-c1ccc(OC[C@H]2CCCN2)cc1`, at human LTA4 hydrolase (setting [4]), the IC50 is 5 to 20 µM.

As to `CC1Cc2ccccc2N1c1ccc(OC[C@H]2CCCN2)cc1` (stereo partly shown), at human LTA4 hydrolase (setting [4]), the IC50 is > 20 µM.

With `Cc1cn(-c2ccc(OC[C@H]3CCCN3)cc2)c2ccccc12`, at human LTA4 hydrolase (setting [4]), the IC50 is > 20 µM.

As for `Clc1c2ccccc2nn1-c1ccc(OCCN2CCCCC2)cc1` [Example 1, 3-Chloro-2-[4-(2-piperidin-1-yl-ethoxy)-phenyl]-2H-idazole], the IC50 on human LTA4 hydrolase (setting [5]) and on human LTA4 hydrolase (setting [6]) was < 5 µM in each case.

Take `CN(CCOc1ccc(-n2nc3ccccc3c2Cl)cc1)CCC(=O)O` [Example 2, 3-({2-[4-(3-Chloro-indazol-2-yl)-phenoxy]-ethyl}-methyl-amino)-propionic acid hydrochloride]: the IC50 at human LTA4 hydrolase (setting [7]) and on human LTA4 hydrolase (setting [6]) was < 5 µM in each case.

Regarding `CN(CCCC(=O)O)CCOc1ccc(-n2nc3ccccc3c2Cl)cc1` [Example 3, 4-({2-[4-(3-Chloro-indazol-2-yl)-phenoxy]-ethyl}-methyl-amino)butyric acid hydrchloride salt], the IC50 on human LTA4 hydrolase (setting [7]) and at human LTA4 hydrolase (setting [6]) was < 5 µM in each case.

`CNCCCOc1ccc(-n2nc3ccccc3c2Cl)cc1` [Example 4, {3-[4-(3-Chloro-indazol-2-yl)-phenoxy]-propyl}-methyl-amine hydrochloride]: the IC50 at human LTA4 hydrolase (setting [7]) and at human LTA4 hydrolase (setting [6]) was < 5 µM throughout.

With `CN(CCCOc1ccc(-n2nc3ccccc3c2Cl)cc1)CCC(=O)O` [Example 5, 3-({3-[4-(3-Chloro-indazol-2-yl)-phenoxy]-propyl}-methyl-amino)-propionic acid hydrochloride salt], the IC50 on human LTA4 hydrolase (setting [7]) and at human LTA4 hydrolase (setting [6]) was < 5 µM in each case.

As for `CN(CCCOc1ccc(-n2nc3ccccc3c2Cl)cc1)CCCC(=O)O` [Example 6, 4-({3-[4-(3-Chloro-indazol-2-yl)-phenoxy]-propyl}-methyl-amino)butyric acid Hydrochloride], the IC50 on human LTA4 hydrolase (setting [7]) and at human LTA4 hydrolase (setting [6]) was < 5 µM throughout.

Regarding `O=C(O)C1CCN(CCCOc2ccc(-n3nc4ccccc4c3Cl)cc2)CC1` [Example 8, 1-{3-[4-(3-Chloro-indazol-2-yl)-phenoxy]-propyl}-piperidine-4-carboxylic acid hydrochloride], the IC50 on human LTA4 hydrolase (setting [5]) and on human LTA4 hydrolase (setting [6]) was < 5 µM each time.

Regarding `CNC(=O)C1CCN(CCCOc2ccc(-n3nc4ccccc4c3Cl)cc2)CC1` [Example 9, 1-{3-[4-(3-Chloro-indazol-2-yl)-phenoxy]-propyl}-piperidine-4-carboxylic acid methylamide], the IC50 at human LTA4 hydrolase (setting [5]) and on human LTA4 hydrolase (setting [6]) was < 5 µM throughout.

`NC(=O)C1CCN(CCCOc2ccc(-n3nc4ccccc4c3Cl)cc2)CC1` [Example 10, 1-{3-[4-(3-Chloro-indazol-2-yl)-phenoxy]-propyl}-piperidine-4-carboxylic acid amide]: the IC50 at human LTA4 hydrolase (setting [5]) and on human LTA4 hydrolase (setting [6]) was < 5 µM each time.

For `OCC1CCN(CCCOc2ccc(-n3nc4ccccc4c3Cl)cc2)CC1` [Example 11, (1-{3-[4-(3-Chloro-indazol-2-yl)-phenoxy]-propyl}-piperidin-4-yl)-methanol], the IC50 on human LTA4 hydrolase (setting [5]) and at human LTA4 hydrolase (setting [6]) was < 5 µM throughout.

For `Clc1c2ccccc2nn1-c1ccc(OC[C@H]2CCCN2)cc1` [Example 12, 3-Chloro-2-[4-((R)-1-pyrrolidin-2-ylmethoxy)-phenyl]-2H-indazole], the IC50 on human LTA4 hydrolase (setting [8]) and at human LTA4 hydrolase (setting [6]) was < 5 µM each time.

For `Clc1c2ccccc2nn1-c1ccc(OC[C@@H]2CCCN2)cc1` [Example 13, 3-Chloro-2-[4-((S)-1-pyrrolidin-2-ylmethoxy)-phenyl]-2H-indazole hydrochloride], the IC50 on human LTA4 hydrolase (setting [8]) and on human LTA4 hydrolase (setting [6]) was < 5 µM each time.

For the compound `O=C(O)CN1CCC[C@@H]1COc1ccc(-n2nc3ccccc3c2Cl)cc1` [Example 15, {(R)-2-[4-(3-Chloro-indazol-2-yl)-phenoxymethyl]-pyrrolidin-1-yl}-acetic acid Hydrochloride], the IC50 on human LTA4 hydrolase (setting [8]) and on human LTA4 hydrolase (setting [6]) was < 5 µM in each case.

In the case of `O=C(O)CCN1CCC[C@@H]1COc1ccc(-n2nc3ccccc3c2Cl)cc1` [Example 16, 3-{(R)-2-[4-(3-Chloro-indazol-2-yl)-phenoxymethyl]-pyrrolidin-1-yl}-propionic acid Hydrochloride], the IC50 on human LTA4 hydrolase (setting [8]) and on human LTA4 hydrolase (setting [6]) was < 5 µM throughout.

Take `O=C(O)CCCN1CCC[C@@H]1COc1ccc(-n2nc3ccccc3c2Cl)cc1` [Example 17, 4-{(R)-2-[4-(3-Chloro-indazol-2-yl)-phenoxymethyl]-pyrrolidin-1-yl}-butyric acid Hydrochloride]: the IC50 at human LTA4 hydrolase (setting [8]) and at human LTA4 hydrolase (setting [6]) was < 5 µM in each case.

For `O=C(O)CN1CCC[C@H]1COc1ccc(-n2nc3ccccc3c2Cl)cc1` [Example 18, {(S)-2-[4-(3-Chloro-indazol-2-yl)-phenoxymethyl]-pyrrolidin-1-yl}-acetic acid Hydrochloride], the IC50 at human LTA4 hydrolase (setting [8]) and at human LTA4 hydrolase (setting [6]) was < 5 µM throughout.

Consider `O=C(O)CCCN1CCC[C@H]1COc1ccc(-n2nc3ccccc3c2Cl)cc1` [Example 19, 4-{(S)-2-[4-(3-Chloro-indazol-2-yl)-phenoxymethyl]-pyrrolidin-1-yl}-butyric acid Hydrochloride], for which the IC50 at human LTA4 hydrolase (setting [8]) and on human LTA4 hydrolase (setting [6]) was < 5 µM each time.

In the case of `CN(CCCOc1ccc(Cc2ccccc2)cc1)CCC(=O)O.Cl` [SC57461], the “inhibition of ionophore-induced LTB4 production in mouse blood ex vivo” value in assay [1] is given as “inhibition of ionophore-induced LTB4 production”. For the same compound, the “inhibition of ionophore-induced LTB4 production in rat peritoneum in vivo” value in assay [2] is “inhibition of ionophore-induced LTB4 production”. Moreover, the colitis symptoms result in assay [3] was “significantly improved colitis symptoms”.
